Series [1] in a line: CCK-8 cell viability assay. The note with it: human, HepG2 cells. (In general: Formazan colour is commonly taken as a measure of viable cells.)
Experimental: Human hepatoma HepG2 cells were obtained from the Beijing Union Medical Cell Resource Center (Basic Medical Cell Center, Institute of Basic Medical Sciences, Chinese Academy of Medical Sciences). The cells were cultured in DMEM containing 10% FBS and 1% penicillin–streptomycin and incubated with 5% CO2 at 37 °C. Cells were allowed to grow to approximately 80% confluency and were sub-cultured at a ratio of 1:3 [27]. In this study, to simulate the process of nonalcoholic fatty liver disease in vitro, 0.2 mM oleic acid (OA) was added to the culture medium for 48 h to induce human HepG2 to establish a nonalcoholic fatty liver cell model [28].
HepG2 cells were seeded into 96-well plates after achieving logarithmic growth and cultured overnight at 37 °C with 5% CO2. After treatment with different concentrations of compounds (dissolved in DMSO) for 24 h, 10 μL CCK-8 solution (Cell Counting Kit-8, Sigma-Aldrich (St. Louis, MO, USA)) was added to each well and the plate was incubated for 2 h in the incubator. Then, the absorbance at 450 nm was measured using a microplate reader. The normal control group was treated with the same amount of DMSO as the experiment group [29]. Cell viability was calculated by: cell viability (%) = (ODdrug/ODcontrol) × 100%.
The test system of series [2] is oleic acid-induced HepG2 cell line model. The series can be described thus: Bodipy staining of lipid accumulation in oleic acid-induced HepG2 cells. It counts as cell-based. As to conditions: Homo sapiens, 24 h, OA-induced HepG2, read-out: Inhibitory Rate of lipid accumulation; for inhibition at 100 µg/mL: 100 μg/mL. The method, then: After treatment with compounds for 24 h in a 96-well plate, the supernatant of the HepG2 cells was discarded and cells were washed twice with PBS, then the cells were fixed with 4% paraformaldehyde at room temperature for 20 min. After removing the fixative reagent, the cells were washed twice with PBS. HepG2 cells were stained with 100 μL Bodipy (2 μg/mL, Thermo Fisher Scientific (Waltham, MA, USA)) in the dark at 25 °C for 30 min [30]. The fluorescence was measured using a fluorescence plate reader (Ex = 500 nm, Em = 550 nm, POLARstar, BMG Labtech (Offenburg, Germany)). The inhibition rate was calculated by comparison with the control group which was just treated with DMSO.

The test system is the same in series [3]. The series can be described thus: Oil Red O staining of lipid accumulation in oleic acid-induced HepG2 cells. Type of series: cell-based. As to conditions: Homo sapiens; Oil Red O assay, OA-induced HepG2, 24 h, area of lipid droplets; read-out: IC50 against lipid accumulation. The method, then:
HepG2 cells were treated with different concentrations of compounds for 24 h, then were washed twice with PBS and fixed with 4% paraformaldehyde for 15–20 min. The cells were washed with PBS and stained with Oil Red O solution (50 µL per well, Sigma-Aldrich) at 25 °C for 1 h. After washed with PBS for 3–5 times, the lipid droplets and cell morphology were observed by a light microscope and photographed. The area of lipid droplets was statistically compared for IC50 calculation with the control group which was treated with DMSO using Image J software.

For orientation: viability means a read-out of living cells in per cent, often relative to untreated cells. Consider `C=CC(C)(C)c1[nH]c2c(CC=C(C)C)cc(CC=C(C)C)cc2c1C[C@@H]1NC(=O)[C@H](C)NC1=O` [Compound 5, echinulin], for which the viability at 24 h, 25 μg/mL in series [1] turned out to be 94.5%. Moreover, the inhibition at 25 µg/mL in series [2] (25 μg/mL) stood at 5.46%.
For the compound `C=CC(C)(C)c1[nH]c2cc(CC=C(C)C)ccc2c1/C=C1\NC(=O)[C@H](C)NC1=O` [Compound 3, neoechinulin D], the viability at 24 h, 100 μg/mL in series [1] was found to be 11.2%. In series [2], the inhibition at 100 µg/mL is -67.3%.
For `C=CC(C)(C)c1[nH]c2c(CC=C(C)C)cccc2c1/C=C1\NC(=O)[C@H](C)NC1=O` [Compound 4, variecolorin G], in series [2], the inhibition at 100 µg/mL is -15.3%.
For orientation: IC50 means the concentration needed to halve the response being measured. Regarding `C=CC(C)(C)c1[nH]c2c(CC3OC3(C)C)cccc2c1C=C1NC(=O)C(C)NC1=O` (centres unmarked) [Compound 1, variecolorin P], the viability at 24 h, 100 μg/mL in series [1] was 110%. Also, the IC50 in series [3] is 127 nM. Moreover, the inhibition at 100 µg/mL in series [2] stood at 37.3%.

(Values after article PMC10055714, “The Hypolipidemic Characteristics of a Methanol Extract of Fermented Green Tea and Spore of Eurotium cristatum SXHBTBU1934 in Golden Hamsters” (Nutrients, 2023).)
